Assay results from patent US10597735B2, “Antibacterial and plasmid elimination agents” (priority 2006, dated 2020).
Converted amounts (≈) assume the structure as drawn. “Also recorded” adds a separate entry of the source. Like-named read-outs stand apart in the source and are kept apart here. Where a SMILES comes first, the peptide text is derived from it.

Tests used:
[1] = target: ClpX (Escherichia coli, UniProt P0A6H1); assay: ClpX ATPase assay; assay type: biochemical, E. coli
Method: ATPase and peptidase assays: ClpX ATPase activity was measured by monitoring the increase in phosphate using a ternary hetero polyacid assay (Chen et al. 2003, Tsinghua Science and Technology 8: 422-427). 1 μM ClpX was incubated with or without 6 μM GFP-tag and varying concentrations of IXP1 in buffer P (4 mM ATP, 50 mM tris-HCl (pH 7.5), 100 mM NaCl, 100 mM KCl, 10 mM MgCl2, 2 mM DTT, and 10% glycerol) at 37° C. At each time point 10 μl was removed from the reaction, added to 265 μl 0.88 M nitric acid for 2 min, and 225 μl color developing solution (44.4 mM bismuth nitrate, 31.1 mM ammonium molybdate, 0.11% ascorbic acid) was added and the absorbance at 700 nm was determined. The rate of ATP hydrolysis was determined from plots of phosphate accumulation versus time.

[2] = target: T1, ClpXP (Escherichia coli, UniProt P0A6G7+P0A6H1); assay: biochemical; assay type: biochemical, E. coli
T1 sequence (P0A6G7 15-207): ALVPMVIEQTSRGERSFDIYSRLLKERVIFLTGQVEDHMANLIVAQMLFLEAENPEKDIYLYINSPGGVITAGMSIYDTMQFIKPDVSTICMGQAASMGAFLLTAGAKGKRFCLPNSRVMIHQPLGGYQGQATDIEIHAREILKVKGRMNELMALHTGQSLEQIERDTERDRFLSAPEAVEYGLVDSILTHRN
T1 sequence (P0A6H1 whole entry): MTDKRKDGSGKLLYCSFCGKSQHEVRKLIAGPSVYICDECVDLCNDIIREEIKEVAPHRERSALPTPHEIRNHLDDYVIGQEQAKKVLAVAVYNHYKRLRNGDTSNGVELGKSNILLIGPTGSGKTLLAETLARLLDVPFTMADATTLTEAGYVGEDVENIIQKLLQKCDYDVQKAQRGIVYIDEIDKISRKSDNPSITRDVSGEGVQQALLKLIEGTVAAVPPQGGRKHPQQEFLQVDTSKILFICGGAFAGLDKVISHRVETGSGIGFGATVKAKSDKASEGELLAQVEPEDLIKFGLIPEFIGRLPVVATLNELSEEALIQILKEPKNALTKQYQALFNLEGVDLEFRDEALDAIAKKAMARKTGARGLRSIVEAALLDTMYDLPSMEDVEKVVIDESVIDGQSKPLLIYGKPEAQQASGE
Method: (§1) In vitro proteolysis assays: Proteolysis of GFP-tag was performed using a continuous fluorescence assay essentially as previously described (Levchenko et al. 2000, Science 289: 2354-2356). Briefly, loss of GFP fluorescence was monitored at 507 nm after excitation at 395 nm at 30° C. using a Hitachi F-2000 Fluorescence Spectrophotometer in buffer R (25 mM HEPES-KOH (pH 7.6), 5 mM MgCl2, 50 mM KCl, 0.032% NP-40, 10% glycerol, and an ATP regeneration system containing 4 mM ATP (pH 7), 16 mM creatine phosphate and 0.32 mg/ml creatine kinase). Typically, reactions contained […], 0.3 μM ClpP14, and equimolar concentrations (0.2 μM-2.0 μM) GFP-tag and SspB. Degradation of GFP-tag protein was confirmed by SDS-PAGE assays. To examine inhibition of GFP-tag proteolysis, peptides were incubated with ClpXP in reaction buffer for 5 min prior to the addition of GFP-tag. Plots of fluorescence versus time were fit with a single exponential function to determine the initial rate of proteolysis. Kinetic parameters were estimated using Eadie-Hofstee plots.
Proteolysis of GFP-tag in the presence of ClpXP and SspB was monitored by loss of GFP fluorescence in a continuous fluorometric assay. In the absence of cyclic peptide, GFP-tag was degraded with kinetic parameters kcat=[…], KM=0.74±0.04 μM. […] Likewise, no degradation was observed when ClpX or ClpP were omitted from the reaction.

[3] = target: T1, ClpXP; assay: In vitro proteolysis of GFP-tag by ClpXP without SspB (Example 3); assay type: biochemical, E. coli; conditions: no SspB
Method: as §1
In the in vitro and in vivo proteolysis reactions above, the proteolytic adaptor SspB binds GFP-tag and tethers it to ClpXP (Levchenko et al. 2000, Science 289: 2354-2356). In principle, IXP1 could act on the GFP-tag.cndot.ClpXP interaction or the SspB.cndot.ClpXP interaction. […]

[4] = test system: GFP-tag degradation by ClpXP; assay: In vivo screen: GFP-tag reporter fluorescence in E. coli producing the cyclic peptide from a SICLOPPS plasmid, epifluorescence microscopy (Example 3); assay type: cell-based
Method: Screen for inhibitors of the tmRNA pathway: E. coli BW7786 cells containing the GFP-tag reporter and the SICLOPPS library were grown in LB broth with 30 μg/ml chloramphenicol, 100 μg/ml ampicillin, and 0.0002% arabinose at 37° C. to OD600=0.3. IPTG was added to a final concentration of 1 mM, and the culture was grown for 3 hours. Cells were sorted by fluorescence activated cell sorting (FACS) using a Beckman Coulter Elite cell sorter with Autoclone to isolate cells with GFP fluorescence, and selected cells were deposited on agar plates for clonal growth. Cells from each colony were grown in liquid culture as described above and examined by epifluorescence microscopy. The fluorescence intensity and the number of cells with fluorescence above background were scored using ImagePro software (MediaCybernetics). SICLOPPS plasmid DNA was prepared from selected clones and the region encoding the cyclic peptide was sequenced. Peptide sequences were obtained from conceptual translation of the DNA sequences.
Approximately 0.014% of the population had fluorescence over the background level, and 96 of these cells were isolated for clonal growth and characterization. To eliminate any clones that resulted from sorting errors or spurious accumulation of GFP, cells from each colony were cultured and examined by epifluorescence microscopy.

[5] = test system: GFP-tag reporter; assay: GFP-tag reporter fluorescence in cells expressing SGW+5 SICLOPPS clones, epifluorescence microscopy (Example 1); assay type: cell-based, E. coli
Source text: Clonal populations are obtained by spotting the cells with high fluorescence on agar plates, and cells from each colony are screened by epi-fluorescence microscopy for fluorescence intensity. SICLOPPS plasmids from clones that pass the microscopy screen were isolated and sequenced to identify the cyclic peptide that is produced in that clone.
A SICLOPPS library was constructed in which the cyclic peptide contains three constant amino acids, SGW, followed by five random amino acids encoded by NNS codons. This library was introduced into cells containing the GFP-tag reporter, and the expression of the reporter and cyclic peptide were induced. Approximately 690,000 cells were sorted by FACS and the brightest 50 were isolated. These 50 clones were grown individually in fresh medium, the expression of reporter and cyclic peptide was induced, and the culture was observed by epifluorescence microscopy. Two clones produced cultures in which nearly 100% of the cells were highly fluorescent.

[6] = target: T1, ClpXP; assay: Peptidase activity of ClpXP against IXP1, reverse-phase HPLC; assay type: biochemical, E. coli; conditions: 60 min, no GFP-tag, HPLC peak area
Method: Peptidase activity against IXP1 was assayed by incubating 200 μM IXP1 with 0.1 μM ClpX6, 0.3 μM ClpP14 and the ATP regeneration system in buffer R at 37° C. Sample were taken after 0, 5, and 60 min, and
separated by reverse-phase HPLC using a Varian Microsorb-MV C18 column developed in a gradient from 0.1% trifluoroacetic acid in water to 0.1% trifluoroacetic acid in acetonitrile. UV absorbance at 280 nm was monitored and the peak corresponding to the IXP1 cyclic peptide was determined by comparison to reactions containing only cyclic IXP1 or linear IXP1. The loss of cyclic IXP1 was determined by integrating the area under the cyclic IXP1 peak.

[7] = target: ClpP (Escherichia coli, UniProt P0A6G7); assay: ClpP peptidase assay with Suc-Leu-Tyr-AMC; assay type: biochemical, E. coli; conditions: Suc-Leu-Tyr-AMC substrate
Sequence of ClpP (P0A6G7 15-207): as the sequence (P0A6G7 15-207) above
Method: ClpP peptidase activity was measured using the fluorogenic peptide Suc-Leu-Tyr-AMC. 0.1 μM ClpP was incubated with 0.5-1.0 mM Suc-Leu-Tyr-AMC and varying concentrations of IXP1 in buffer P at 37° C. and monitoring the fluorescence of AMC (excitation at 353 nm, emission at 442 nm).

[8] = test system: C. crescentus; assay type: cell-based, Caulobacter crescentus
Method: Antibacterial activity assays: To measure the effects of peptides on bacterial growth, cultures of C. crescentus were diluted to OD600=0.001, peptide was added at various concentrations, the cultures were incubated at 30° C. for 14 h, and the MIC was determined as the lowest concentration of peptide that prevented growth. To determine the MBC, each culture was diluted 1:100 in PYE and 10 μl of the diluted culture was spread onto PYE agar plates, incubated at 30° C. overnight, and the number of colonies on each plate was counted. The MBC was assigned as the concentration of peptide that reduced the number of colonies by 99.9% compared to cultures with no inhibitor.

[9] = target: T1, ClpXP; assay: Proteolysis of λO protein by ClpXP, SDS-PAGE (Example 3); assay type: biochemical, E. coli
Method: Proteolysis of λO protein was assayed by incubating 1 μM λO with 0.1 μM ClpX6, 0.3 μM ClpP14 in buffer R at 30° C. At various times the reaction was sampled, the reaction was terminated by boiling in SDS-PAGE loading buffer, and analyzed using SDS-polyacrylamide gels stained with Coomassie blue. The intensity of the band corresponding to intact λO protein was measured using ImageQuant software (Molecular Dynamics), and plots of the intensity versus time were fit with single exponential functions to determine the half-life of λO protein.
To determine if IXP1 inhibits proteolysis of ClpXP substrates recognized by an epitope distinct from the tmRNA tag, λO protein was used as an assay substrate. […] Degradation of λO was assayed in the presence and absence of IXP1 by following the loss of intact λO protein on SDS-polyacrylamide gels (FIG. 7).

[10] = target: T1, ClpXP; assay: ClpXP degradation of GFP-tag in the absence of SspB (Examples 1-2); assay type: biochemical, E. coli; conditions: no SspB
Method: (§2) ClpXP Proteolysis: PD buffer contained 25 mM HEPES-KOH (pH 7.6), 5 mM KCl, 5 mM MgCl2, 0.032% NP-40, 5 mM ATP, and 10% glycerol. The ATP regenerating system consisted of 8 mM creatine phosphate and 0.16 mg/ml creatine kinase. Inhibition experiments were performed using a Hitachi F-2000 Fluorescence Spectrophotometer. The rate of GFP-ssrA degradation was monitored at 30° C. for 5 minutes by the loss of fluorescence (excitation 488 nm; emission 507 nm). Competition experiments with increasing concentrations of peptide were performed using GFP-ssrA (0.2 μM), ClpX6 (0.3 ArM), ClpP14 (0.8 μM), and SspB2 (0.3 μM) in PD buffer plus 200 mM KCl and ATP regenerating system. Curve fitting for the competitive inhibition assays were performed using the Scientist program (MicroMath Scientific Software, Inc.).
A priori, there are several steps in the degradation pathway that could be inhibited by the selected cyclic peptides: binding of the substrate-SspB complex to ClpXP, ATPase activity of ClpX, and hydrolysis of the peptide bond by ClpP. Molecules that block the binding of substrate to SspB should not be inhibitors of proteolysis by ClpXP, because ClpXP will degrade tmRNA-tagged substrates in the absence of SspB. To determine if the inhibitors act through SspB, the kinetic assays were repeated in the absence of this proteolytic adaptor.

[11] = target: T1, ClpXP; assay: ClpXP degradation of GFP-tag in the presence of SspB, continuous fluorimetric assay (Examples 1-2); assay type: biochemical, E. coli; conditions: SspB present
Method: as §2
Characterization of ClpXP inhibitors in vitro: Two of the selected cyclic peptides were synthesized in vitro to examine their effects on enzymatic assays. Peptides with the sequence SGWRVQGPL (SEQ ID NO: 1) and SGSKGVLPL (SEQ ID NO: 2) were chemically synthesized in the linear form, circularized, and purified by HPLC. The effects of these peptides on the activity of purified ClpXP were determined in vitro using a continuous fluorimetric assay. GFP-tag, SspB, ClpX and ClpP were each purified from over-expressing strains of E. coli, and degradation of GFP-tag was monitored by loss of fluorescence. In reactions containing all components, GFP-tag was degraded with kinetic parameters kcat=1.79±0.08 min−1, KM=0.74±0.04, similar to the previously published values of 1.44 min^−1 and 0.96 μM. […] For both cyclic peptides, inhibition of ClpXP was reversible, as no inhibition was observed when ClpXP was incubated with peptide at concentrations above the Kr, and dialyzed to remove unbound peptide before addition of enzyme to the reaction. The linear versions of SGSKGVLPL (SEQ ID NO: 2) and SGWRVQGPL (SEQ ID NO: 1) had Kb, values >1 mM (Table 4), so the cyclic architecture is likely to be important for inhibition.

Sequence of ClpX (P0A6H1 whole entry): as the sequence (P0A6H1 whole entry) above

N=C(N)NCCC[C@@H]1NC(=O)CNC(=O)[C@H](Cc2ccc(O)cc2)NC(=O)[C@H](Cc2c[nH]c3ccccc23)NC(=O)CNC(=O)[C@H](CO)NC(=O)[C@H](Cc2c[nH]cn2)NC(=O)[C@H](CCCNC(=N)N)NC1=O [IXP1, SGWYGRRH] (HELM PEPTIDE1{G.R.R.H.S.G.W.Y}$PEPTIDE1,PEPTIDE1,1:R1-8:R2$$$V2.0)
ClpX ATPase activity with GFP-tag included ([1]; with GFP-tag): no effect | rate of ClpX ATP hydrolysis ([1]; without GFP-tag, up to 200 μM IXP1): not inhibited | mode of inhibition of GFP-tag degradation ([2]; SspB present): uncompetitive inhibition | inhibition of ClpXP proteolysis of GFP-tag in vitro ([2]; at the concentrations tested): reduced the rate | effect on GFP-tag degradation by ClpXP in the absence of SspB [3]: still inhibited | cell morphology ([4]; compared with filamentous ΔclpX strain): slightly filamentous | GFP-tag fluorescence / inhibition in vivo ([4]; compared with ΔclpX strain): indistinguishable from the ΔclpX strain; also recorded: fluorescent cells | average fluorescent intensity relative to cultures expressing ICP1 or ICP2 [5]: more than twice | cells highly fluorescent ([5]; induced culture): ~100% | amount of cyclic peptide after incubation with ClpXP [6]: did not change; also recorded: unchanged | decrease of ClpP peptidase activity [7]: less than 2% | MBC [8]: 279 ± 23 µM (≈ 279 µg/mL) | MIC [8]: 219 ± 42 µM (≈ 219 µg/mL)

CC(C)C[C@@H]1NC(=O)[C@H](C)NC(=O)[C@@H]2CCCN2C(=O)[C@H](CCCNC(=N)N)NC(=O)CNC(=O)CNC(=O)[C@H](CCCNC(=N)N)NC(=O)[C@H](CS)NC(=O)[C@H](CCCCN)NC(=O)[C@H](C(C)C)NC(=O)[C@H](C(C)C)NC(=O)[C@H](CCCNC(=N)N)NC1=O [cycXB, CRGGRPALRVVK] (HELM PEPTIDE1{A.L.R.V.V.K.C.R.G.G.R.P}$PEPTIDE1,PEPTIDE1,1:R1-12:R2$$$V2.0)
KI fold lower than the linear XB peptide ([2]; SspB present): 7 fold | inhibition of λO degradation by ClpXP [9]: did not inhibit | inhibition of GFP-tag degradation by ClpXP in the absence of SspB [10]: inhibited | MBC ([8]; C. crescentus, 99.9% colony reduction, listed as cyclic XB): 40 ± 6 µM (≈ 51.7 µg/mL) | KI fold lower than the linear XB peptide [11]: 7 fold | KI fold lower than the selected cyclic peptide inhibitors [11]: 2-3 fold
